{"source": "patent US20230203043A1", "about": "“NOVEL IMIDAZOPYRAZINE DERIVATIVES” (Hoffmann-La Roche Inc., priority 2020, published 2023)", "note": "Structures can show the parent of a compound that is named as a salt."}
{"tested_on": "Acinetobacter baumannii ATCC17961", "experiment": "Antimicrobial susceptibility testing: 90% growth inhibitory concentration (IC90) determination in Iso-Sensitest broth, OD600 growth", "assay_type": "cell-based", "settings": "Acinetobacter baumannii, ATCC17961, 16 h, read-out: A. baumannii ATCC 17961 IC90 (uM), strain ATCC 17961, OD600 growth over 16 h", "in_short": "(§1)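 Growth monitored at 600 nm every 20 min for 16 h at 35±2 °C, inoculum ~5×10^(5) CFU/ml in Iso-Sensitest medium. Compounds in 10-point twofold series, e.g. 50 to 0.097 μM final; 90% inhibitory concentration taken from log-phase growth.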", "units": {"IC90": "µM"}}
{"molecule": "O=C(c1ccc(Nc2nccn3c(-c4c[nH]nc4C(F)(F)F)cnc23)cc1Cl)N1CCN(C(=O)[C@H]2C[C@H](O)CN2)CC1", "note": "[Example 452, [2-chloro-4-[[3-[3-(trifluoromethyl)-1H-pyrazol-4-yl]imidazo[1,2-a]pyrazin-8-yl]amino]phenyl]-[4-[(2R,4S)-4-hydroxypyrrolidine-2-carbonyl]piperazin-1-yl]methanone formate]", "IC90": 0.401}
{"molecule": "CCc1cc(Nc2nccn3c(-c4c[nH]nc4C(F)(F)F)cnc23)ccc1C(=O)NCCNC(=O)[C@H](C)N", "note": "[Example 718, (S)-N-(2-(2-aminopropanamido)ethyl)-2-ethyl-4-((3-(3-(trifluoromethyl)-1H-pyrazol-4-yl)imidazo [1,2-a]pyrazin-8-yl)amino)benzamide formate]", "IC90": 0.435}
{"molecule": "CCc1cc(Nc2nccn3c(-c4c[nH]nc4C(F)(F)F)cnc23)ccc1C(=O)NCCCNC(=O)NCCN", "note": "[Example 193, N-[3-(2-aminoethylcarbamoylamino)propyl]-2-ethyl-4-[[3-[3-(trifluoromethyl)-1H-pyrazol-4-yl]imidazo[1,2-a]pyrazin-8-yl]amino]benzamide formate]", "IC90": 0.244}
{"molecule": "C#CCn1cc(-c2cnc3c(Nc4ccc(C(=O)NCCCNCCCCNCCCN)c(CC)c4)nccn23)c(C(F)(F)F)n1", "note": "[Example 155, N-[3-[4-(3-aminopropylamino)butylamino]propyl]-2-ethyl-4-[[3-[1-prop-2-ynyl-3-(trifluoromethyl)pyrazol-4-yl]imidazo[1,2-a]pyrazin-8-yl]amino]benzamide trifluoroacetate]", "IC90": 0.585}
{"molecule": "N#CCn1cc(-c2cnc3c(Nc4ccc(C(=O)NCC(=O)N[C@@H]5CCNC5)c(Cl)c4)nccn23)c(C(F)(F)F)n1", "note": "[Example 723, 2-chloro-4-[[3-[1-(cyanomethyl)-3-(trifluoromethyl)pyrazol-4-yl]imidazo[1,2-a]pyrazin-8-yl]amino]-N-[2-oxo-2-[[(3R)-pyrrolidin-3-yl]amino]ethyl]benzamide formate]", "IC90": 0.459}
{"molecule": "N#CCn1cc(-c2cnc3c(Nc4ccc(C(=O)N5CCN(C(=O)N[C@H]6CCNC6)CC5)c(Cl)c4)nccn23)c(C(F)(F)F)n1", "note": "[Example 297, 4-[2-chloro-4-[[3-[1-(cyanomethyl)-3-(trifluoromethyl)pyrazol-4-yl]imidazo[1,2-a]pyrazin-8-yl]amino]benzoyl]-N-[(3S)-pyrrolidin-3-yl]piperazine-1-carboxamide formate]", "IC90": 0.31}
{"tested_on": "Acinetobacter baumannii ATCC17961", "experiment": "Antimicrobial susceptibility testing: 90% growth inhibitory concentration (IC90) determination in Iso-Sensitest broth, OD600 growth", "assay_type": "cell-based", "settings": "Acinetobacter baumannii, ATCC17961, 16 h, strain ATCC 17961, OD600 growth over 16 h, read-out: A. baumannii ATCC 17961 IC90", "in_short": "as §1", "units": {"IC90": "µM"}}
{"molecule": "CCc1cc(Nc2nccn3c(-c4cn(CC#N)nc4C(F)(F)F)cnc23)ccc1C(=O)NCCCNC(=O)[C@@H]1C[C@@H](O)CN1", "note": "[Example 754, (2S,4R)-N-(3-(4-((3-(1-(cyanomethyl)-3-(trifluoromethyl)-1H-pyrazol-4-yl)imidazo[1,2-a]pyrazin-8-yl)amino)-2-ethylbenzamido)propyl)-4-hydroxypyrrolidine-2-carboxamide]", "IC90": 0.671}
{"molecule": "C[C@@H](N)C(=O)N1CCN(C(=O)c2ccc(Nc3nccn4c(-c5c[nH]nc5C(F)(F)F)cnc34)cc2Cl)CC1", "note": "[Example 207, (2R)-2-amino-1-[4-[2-chloro-4-[[3-[3-(trifluoromethyl)-1H-pyrazol-4-yl]imidazo[1,2-a]pyrazin-8-yl]amino]benzoyl]piperazin-1-yl]propan-1-one]", "IC90": 0.205}
{"tested_on": "Acinetobacter baumannii ATCC17961", "experiment": "Antimicrobial susceptibility testing: 90% growth inhibitory concentration (IC90) determination in Iso-Sensitest broth, OD600 growth", "assay_type": "cell-based", "settings": "strain ATCC 17961, OD600 growth over 16 h, read-out: A. baumannii ATCC 17961 IC90", "in_short": "as §1", "units": {"IC90": "µM"}}
{"molecule": "Cc1cc(Nc2nccn3c(-c4c[nH]nc4C(F)(F)F)cnc23)ccc1C(=O)N1CCN(C(=O)N[C@H]2CNC[C@@H]2O)CC1", "note": "[Example 458, formic acid, N-[(3S,4S)-4-hydroxyppyrrolidin-3-yl]-4-[2-methyl-4-[[3-[3-(trifluoromethyl)-1H-pyrazol-4-yl]imidazo[1,2-a]pyrazin-8-yl]amino]benzoyl]piperazine-1-carboxamide]", "IC90": 0.551}
{"molecule": "N[C@@H]1CC[C@H](NC(=O)N2CCN(C(=O)c3ccc(Nc4nccn5c(-c6c[nH]nc6C(F)(F)F)cnc45)cc3Cl)CC2)C1", "note": "[Example 233, N-[(1S,3R)-3-aminocyclopentyl]-4-[2-chloro-4-[[3-[3-(trifluoromethyl)-1H-pyrazol-4-yl]imidazo[1,2-a]pyrazin-8-yl]amino]benzoyl] piperazine-1-carboxamide formate]", "IC90": 0.169}
